From patent publication EP2880993A1, “Method of achieving memory and learning improvement by the administration of sialic acid” (ABBOTT LABORATORIES, priority 2013, dated 2015)
Entries after “also recorded” stand apart in the source; their conditions may differ.

Legend:
rats [1] = test: Intellicage testing, Example 2; type: in vivo, Sprague-Dawley rat; details: 14-15 months old, compared with Control group; for visits to the correct corner versus the incorrect corner (performance): FIG. 8
Protocol: IntelliCage® (NewBehavior AG) is a computer-based, fully automated testing apparatus used to analyze spontaneous and learned behavior. Eight rats in each group were tested. The rats were 14-15 months old, which corresponds to 55-60 years old for humans, when these tests were performed. Animals remain in the cage during several days and behavior is recorded during the entire testing period. Different paradigms can be tested by restricting water access to specific places and time periods. Each animal is assigned a corner where it can access water. Access to the water is only allowed during discrete time periods. Thus, each animal must learn when access to water bottles is allowed and which corner, out of four, has been assigned to it. Access to the corner is controlled by a door that opens only when the assigned rat enters its nose in a hole. […] Access to non-assigned corners remain blocked except during two 90 min periods during the night.

rats [2] = test: Y-maze testing, Example 2 (Acquisition Trial and Retention Trial); type: in vivo, Sprague-Dawley rat; details: 14 months old; for latency to blocked arm: Retention Trial 4 hours after Acquisition Trial, compared with Control group, FIG. 6; for percentage of animals visiting the previously blocked arm first: Retention Trial, compared with control animals, FIG. 7
Protocol: A Y-maze test was performed when the rats were 14 months old, which corresponds to 50-55 years old in humans. Eight rats in each group were tested. The Y-maze testing was performed in two phases: an Acquisition Trial and a Retention Trial. Rats in each group were evaluated in the Y-maze.
(§1) During the Acquisition Trial, one of the three arms of the Y-maze was blocked, and animals were allowed to explore the other two arms for 15 minutes. The Retention Trial took place 4 hours after the Acquisition Trial. During the Retention Trial, all three arms were open and animals were allowed to explore for 5 minutes. The amount of time each animal spent at the start of the Y-maze and each arm was evaluated.

rats [3] = test: Novel Object Recognition testing, Example 2; type: in vivo, Sprague-Dawley rat; details: 13 months old, retention test one day after acquisition phase, FIG. 5
Protocol: Perirhinal cortex and hippocampus are involved in the novel object recognition task. Novel Object Recognition Testing was performed when the rats were 13 months old, which corresponds to 45-50 years old for humans. Eight animals were tested.
During a habituation phase of the test, the rats were allowed to explore an "arena" for 20 minutes per day for 3 consecutive days. The arena was a black, open plastic chamber. Next, an acquisition phase took place wherein the animals interfaced with two different objects. These object are defined as "familiar." The rats were allowed to the arena while the familiar objects were present for 10 minutes. One day after the acquisition phase, a retention test was performed on the rats, wherein one of the familiar objects was replaced by a new object. The new object is defined as "novel." The rats were allowed to explore the arena for 5 minutes during the retention test. In theory, animals that remember familiar objects will spend more time exploring the novel object than the familiar one.

[4] = system: hippocampal CA3-CAl areas; test: Long-term potentiation (LTP) testing in vivo, Example 2; set-up: species or system Sprague-Dawley rat; details: 11 months old, FIG. 4; for persistence of LTP induction: after the second day, followed for up to 4 days; for fEPSP values / LTP response evoked after the HFS train, in words: compared with Control group (and NeuAc group)
Protocol: In order to establish the role of sialylated oligosaccharides in cognition, rat pups were supplemented with 6'-sialyllactose (6'-SL) from postnatal day 3 (PND3) and their learning and memory abilities were analyzed later in life. Rat performance in a classical spatial cognitive task (Y-maze), Novel object Recognition, protocol of spatial learning in the novel Intellicage® system, and Morris water maze were carried out once the animals reached 12 and 14 months of age. LTP response in hippocampus was also evaluated in vivo once the animals reached 11 months of age. The Y-maze, Object Recognition and the IntelliCage® allow the determination of spatial orientation and memory capabilities of experimental animals. The same female rats performed all the tests.
The pups from the second cohort were divided into three groups and given the following designations: the 6'-SL supplemented group, the NeuAc supplemented group and the control group. Initially, each group comprised 20 male pups. Due to premature deaths there were a total of 14 pups in the 6'-SL supplemented group at the end of the lactation. The 6'-SL supplemented group received 6'-SL supplementation (8 doses/day) in order to reach the same sialic acid levels as normally reared pups. The amount of 6'-SL given to the 6'-SL supplemented group was selected to follow the change in concentration of sialic acid in rat milk, ranging from 1.5 g/Kg body weight on day 3 to 0.5 g/Kg body weight at weaning. The maximum amount of sialic acid given to a pup was a maximum of 2 mg/Kg on day 8.
There were a total of 16 male pups in the NeuAc supplemented group at the end of lactation. The NeuAc supplemented group received NeuAc supplementation in order to reach the same sialic acid levels as normally reared pups. The amount of NeuAc given to the NeuAc supplemented group was selected to follow the change in concentration of sialic acid in rat milk, ranging from 1.5 g/Kg body weight on day 3 to 0.5 g/Kg body weight at weaning. The maximum amount of sialic acid given to any pup was 2 mg/Kg on day 8,
Long-term potentiation (LTP) measurements were performed in each of the three groups, i.e., the 6'-SL Supplemented Group, the NeuAc -Supplemented Group and the Control Group. The testing was done while the animals were alive and 11 months old, which is about age 40 in human years. Experiments were done in order to determine the functionality of hippocampus in vivo. […]
To evoke LTP, the following high frequency stimulation (HFS) protocol was used: each animal was subjected to five 200 Hz, 100 ms trains of pulses at a rate of l/s. […] After the HFS protocol, fEPSPs were recorded again for 30 minutes. […]
The HFS train is indicated by the downward arrow. […] The baseline was recorded at 15, 10, and 5 minutes before HFS.

[5] = system: hippocampal CA3-CAl areas; test: Long-term potentiation (LTP) testing in vivo, Example 1; set-up: species or system Sprague-Dawley rat; details: PND110; for LTP response evoked by the stimulus, in words: compared with Control Group and Reference Group
Protocol: Long-term potentiation (LTP) measurements were performed in each of the three groups, i.e., the Control Group, the SIA-supplemented Group and the Reference Group. The testing was done while the animals were alive and at postnatal day 110 (PND110). Postnatal day 110 in rats equates to approximately 10 to 20 years of age in the lifespan of a human. Since hippocampus is a key brain structure related to LTP memory, experiments were done in order to determine the functionality of hippocampus in vivo. Long-term potentiation (LTP) is considered as the electrophysiological base of memory. In these experiments, a higher response indicates better memory potential.
The test was performed after implantation of electrodes in the hippocampal CA3-CAl areas of the rats in each group. There were seven rats per group. Each animal had 4 electrodes inserted and LTP measurements were taken from each electrode. Synaptic field potentials in the CAl area were evoked by paired (40 ms of interval) 100 µs, square, biphasic (negative-positive) pulse applied to Schaffer collaterals. For each animal, the stimulus intensity was set well below the threshold for evoking a population spike, usually 30-40% of the intensity necessary for evoking a maximum field excitatory postsynaptic potential ("fEPSP') response. An excitatory postsynaptic potential (EPSP) is a temporary depolarization of postsynaptic membrane potential caused by the flow of positively charged ions into the postsynaptic cell as a result of opening of ligand-gated ion channels.
To evoke LTP, the following high frequency stimulation (HFS) protocol was used: each animal was subjected to five 200 Hz, 100 ms trains of pulses at a rate of l/s. These trains were presented 6 times in total, at intervals of 1 minutes. After the HFS protocol, fEPSPs were recorded again for 30 minutes. Additional recordings were carried out for 15 minutes during the 3 following days.
FIG. 3 depicts the results of the Long-term Potentiation Testing. FIG. 3 illustrates the results of induction of LTP by the use of a high-frequency stimulation (HFS) protocol. Results correspond to the slope of the field excitatory postsynaptic potential ("fEPSP') evoked by a second electronic pulse (which took place 40 ms after a first pulse). Significant differences (p < 0.05) are indicated by the following signs: "*" indicates the differences between the SIA-supplemented Group and the Control Group; and "†" indicates the differences between the Reference Group and the Control Group. Average baseline fEPSP for each group was assigned the value of 100, and the rest of the fEPSP were referred to that value.

rats [6] = test: Y-maze testing, Example 1 (Retention Trial and Memory Trial); type: in vivo, Sprague-Dawley rat; details: PND90
Protocol: In order to establish the role of free sialic acid in cognition, rat pups were supplemented with free N-Acetylneuraminic acid (Neu5Ac) from postnatal day 3 (PND3) and their learning and memory abilities were analyzed later in life. Rat performance in a classical spatial cognitive task (Y-maze) was evaluated once the animals […]. LTP response in hippocampus was also evaluated postnatal day 110 (PND110).
The pups from the second cohort were divided into two groups and given the following designations: the SIA-supplemented group and the Control group. Pups in the SIA - supplemented group were given milk containing low sialic acid, and received a supplementation of free sialic acid since the same day of transfer to the foster mothers until weaning. There were a total of 12 male pups in the SIA -supplemented group. The SIA -supplemented group received free sialic acid supplementation (8 doses/day) in order to reach the same free sialic acid levels as normally reared pups. The amount of free sialic acid given to the SIA-supplemented group was selected to follow the change in concentration of sialic acid in rat milk, ranging from 1.5 g/Kg body weight on day 3 to 0.5 g/Kg body weight at weaning. The amount of sialic acid given to any pup was a maximum of 1.8 mg/Kg body weight on day 8.
The Y-maze is a widely accepted method of testing spatial orientation and memory capabilities in rats. Ten rats in each group were evaluated in the Y-maze. At postnatal day 90 (PND90) for each group, the rats were subjected to a training trial (hereinafter, the "Training Trial"). The approximate equivalent in human years to 90 days of rat life is 10 to 20 years of age. At 5 minutes post training, rats in each group were tested again to test their retention (hereinafter, the "Retention Trial"). At 48 hours post training, rats in each group were tested again to test their memory, (hereinafter, the "Memory Trial").
as §1, with “Training” for “Acquisition”, “minutes.” for “minutes. The Retention Trial took place 4 hours after the Acquisition Trial.”, “Retention Trial and the Memory” for “Retention”
During the Memory Trial, performed 48 hours after the Training Trial, a long time spent at the start of the Y-maze denotes anxiety and neophobia. Conversely, the longer time an animal spent at the novel arm indicates an interest in novelty and apparent ability to recognize which arms they had visited previously.

[7] = Memory Trial 48 hours post training, read from FIG. 2

Structure (SMILES) | speed of learning (rats [1]) | visits to the correct corner versus the incorrect corner (performance) (rats [1]) | latency to blocked arm (rats [2]) | percentage of animals visiting the previously blocked arm first (rats [2]) | time spent exploring the novel object versus the familiar object (rats [3]) | persistence of LTP induction [4] | fEPSP values / LTP response evoked after the HFS train, in words [4] | fEPSP values / LTP response evoked after the HFS train, in words ([4]; listed as 6'SL) | time spent exploring the novel object versus the familiar object (rats [3]; listed as NeuAc) | persistence of LTP response ([5]; 72 hours post stimulus) | fEPSP slope after high-frequency stimulation ([5]; average baseline fEPSP assigned the value of 100, FIG. 3) | fEPSP slope forty-eight hours after high-frequency stimulation ([5]; baseline = 100, FIG. 3) | fEPSP slope seventy-two hours after high-frequency stimulation ([5]; baseline = 100, FIG. 3) | fEPSP slope twenty-four hours after high-frequency stimulation ([5]; baseline = 100, FIG. 3) | LTP response evoked by the stimulus, in words [5] | LTP response evoked by the stimulus, in words ([5]; listed as free sialic acid) | time spent in the novel arm (rats [6]; [7]) | time spent in the start arm (rats [6]; [7]) | Y-maze performance, in words (rats [6]; compared with Reference Group / non-supplemented control animals, listed as free sialic acid) | novel arm preference (percentage of animals that preferred the novel arm first) (rats [6]; Retention Trial 5 minutes post training, pups supplemented PND3 to weaning, read from FIG. 1)
CC(=O)NC1C(O)CC(OCC2OC(OC3C(CO)OC(O)C(O)C3O)C(O)C(O)C2O)(C(=O)O)OC1C(O)C(O)CO (stereo not shown) [6'-SL, 6'-sialyllactose] | seemed to learn faster than the Control group | performed better compared to the Control group | lower values of latency to the blocked arm in comparison with Control group | significantly higher than that of the control animals | significantly more time visiting the novel object than the familiar one; also recorded: distinguish better between the familiar and novel object | remaining; also recorded: remained at elevated levels even 4 days post stimulus | significantly larger | strongest response; also recorded: significantly higher LTP response levels than those of the control group | – | – | – | – | – | – | – | – | – | – | – | –
CC(=O)N[C@H]1[C@H]([C@H](O)[C@H](O)CO)OC(O)(C(=O)O)C[C@@H]1O (stereo partly shown) [SIA, N-Acetylneuraminic acid] | seemed to learn faster than the Control group | performed better compared to the Control group | lower values of latency to the blocked arm in comparison with Control group | significantly higher than that of the control animals | – | remaining | – | – | significantly more time visiting the novel object than the familiar one; also recorded: distinguish better between the familiar and novel object | remained at high levels | about 220 | ~160 | ~140 | about 205 | strongest response | significantly higher LTP response levels than those of the control group | about 65 seconds | about 40 seconds | performed better and similarly to reference animals | about 57%
